Kd data for 1 molecule are collected here from BindingDB's records for doi:10.1021/bi00421a012 (Pennsylvania State University, 1988).

The structures appear in SMILES notation.

The experiment addresses T1, Carbamoyl-phosphate synthase small chain (Escherichia coli (strain K12), UniProt P0A6F1).
T1 sequence (P0A6F1 whole entry): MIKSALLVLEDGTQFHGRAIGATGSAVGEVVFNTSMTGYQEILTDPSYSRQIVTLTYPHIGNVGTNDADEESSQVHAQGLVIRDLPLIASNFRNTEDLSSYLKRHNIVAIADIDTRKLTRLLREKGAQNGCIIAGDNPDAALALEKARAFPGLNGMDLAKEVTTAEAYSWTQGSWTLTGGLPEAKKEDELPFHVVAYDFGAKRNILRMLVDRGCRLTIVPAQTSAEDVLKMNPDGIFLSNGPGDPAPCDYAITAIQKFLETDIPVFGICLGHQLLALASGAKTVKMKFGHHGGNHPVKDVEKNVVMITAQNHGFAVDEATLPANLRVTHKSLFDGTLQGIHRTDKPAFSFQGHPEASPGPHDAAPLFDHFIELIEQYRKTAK
The note with it: pH 7.5; 25 °C.

On to `O=P(O)(O)OC[C@H]1O[C@@H](n2cnc3c2ncn2ccnc32)[C@H](O)[C@@H]1O` [[(2R,3S,4R,5R)-3,4-dihydroxy-5-imidazo[2,1-f]purin-3-yloxolan-2-yl]methyl dihydrogen phosphate], for which the Kd (as a rule, the equilibrium constant for the complex coming apart) was determined as 33 µM.
